Laboratory results reported in the NIST ThermoML archive (doi:10.1016/j.jct.2013.09.042).

Legend:
[1] = Molar enthalpy of transition or fusion; conditions: Crystal; DSC
[2] = Crystal; for vapor or sublimation pressure: Transpiration method; for Normal melting temperature: DTA

Cc1ccc(N=C2SCC3CCCN2C3)cc1Cl (centres undefined)
Conditions | Molar enthalpy of transition or fusion [kcal/mol] | Normal melting temperature [°C]
[1] | 5.43 | –
[2] | – | 133.5

[2]
Conditions | vapor or sublimation pressure [kPa]
376.15 K | 3.1e-05
377.15 K | 3.39e-05
378.15 K | 3.79e-05
379.15 K | 4.05e-05
381.15 K | 5.21e-05
382.15 K | 5.74e-05
383.15 K | 6.78e-05
384.15 K | 7.6e-05
386.15 K | 9.31e-05
388.15 K | 0.0001239
390.15 K | 0.0001553
392.15 K | 0.0002006
394.15 K | 0.0002521
396.15 K | 0.0003109

Clc1ccc(N=C2SCC3CCCN2C3)cc1Cl (centres undefined)
Conditions | Molar enthalpy of transition or fusion [kcal/mol] | Normal melting temperature [°C]
[1] | 5.62 | –
[2] | – | 97.8

[2]
Conditions | vapor or sublimation pressure [kPa]
352.15 K | 1.15e-05
353.15 K | 1.25e-05
354.15 K | 1.59e-05
355.15 K | 1.82e-05
356.15 K | 2.26e-05
357.15 K | 2.27e-05
358.15 K | 2.56e-05
359.15 K | 2.58e-05
360.15 K | 2.91e-05
361.15 K | 3.49e-05
362.15 K | 4e-05
363.15 K | 4.4e-05

Clc1ccc(N=C2SCC3CCCN2C3)cc1 (centres undefined) [N-(4-chlorophenyl)-3-thia-1-azabicyclo[3.3.1]nonan-2-imine]
Conditions | Molar enthalpy of transition or fusion [kcal/mol] | Normal melting temperature [°C]
[1] | 2.82 | –
[2] | – | 138.7

[2]
Conditions | vapor or sublimation pressure [kPa]
368.15 K | 6.26e-05
369.15 K | 7.04e-05
371.15 K | 8.91e-05
373.15 K | 0.0001094
374.15 K | 0.0001327
375.15 K | 0.000149
376.15 K | 0.0001659
378.15 K | 0.0002065
380.15 K | 0.0002459
382.15 K | 0.0003128
384.15 K | 0.0003887
386.15 K | 0.0004737
388.15 K | 0.0005748
390.15 K | 0.0007333
391.15 K | 0.0008441

CCc1ccc(N=C2SCC3CCCN2C3)cc1 (centres undefined) [N-(4-ethylphenyl)-3-thia-1-azabicyclo[3.3.1]nonan-2-imine]
Conditions | Molar enthalpy of transition or fusion [kcal/mol] | Normal melting temperature [°C]
[1] | 3.92 | –
[2] | – | 121.5

[2]
Conditions | vapor or sublimation pressure [kPa]
359.15 K | 1.09e-05
362.15 K | 1.35e-05
364.15 K | 1.75e-05
366.15 K | 1.98e-05
368.15 K | 2.54e-05
371.15 K | 2.86e-05
374.15 K | 3.88e-05
376.15 K | 3.03e-05
377.15 K | 5.41e-05
380.15 K | 6.76e-05
381.15 K | 7.59e-05
382.15 K | 8.41e-05
384.15 K | 8.43e-05
386.15 K | 0.0001059
389.15 K | 0.0001278

Cc1cccc(N=C2SCC3CCCN2C3)c1 (centres undefined) [N-(m-tolyl)-3-thia-1-azabicyclo[3.3.1]nonan-2-imine]
Conditions | Molar enthalpy of transition or fusion [kcal/mol] | Normal melting temperature [°C]
[1] | 6.33 | –
[2] | – | 125.4

[2]
Conditions | vapor or sublimation pressure [kPa]
353.15 K | 5.65e-05
355.15 K | 7.21e-05
357.15 K | 9.52e-05
359.15 K | 0.0001112
361.15 K | 0.0001522
362.15 K | 0.0001678
364.15 K | 0.0002107
366.15 K | 0.0002637
368.15 K | 0.0003248
370.15 K | 0.0004227
372.15 K | 0.0005258
374.15 K | 0.0006715
376.15 K | 0.0008044
